Reference: US8338565B2, “Macrocyclic compounds for inhibition of tumor necrosis factor alpha” (Ensemble Therapeutics Corporation, priority 2008, dated 2012)
Like-named read-outs stand apart in the source and are kept apart here. Numbered stars: 1 amine (or outer) side, 2 acyl side, 3 side chain; on linkers, the order of the positions; unused ones are H or OH. Bridge positions count the residues as written; N and C are the ends. Square brackets hold non-standard residues; d marks the D form. Peptide text beside a SMILES is read from it. * marks the point of attachment. Tartaroyl(2R,3R-(OAc)2) = CC(=O)O[C@@H](C(=O)[*:1])[C@@H](OC(C)=O)C(=O)[*:2]; Phe(4-CF3) = N[C@@H](Cc1ccc(C(F)(F)F)cc1)C(=O)O; Bip = N[C@@H](Cc1ccc(-c2ccccc2)cc1)C(=O)O; dPhe(4-NH2) = Nc1ccc(C[C@@H](N)C(=O)O)cc1; Phe(4-Br) = N[C@@H](Cc1ccc(Br)cc1)C(=O)O; Phe(4-NH2) = Nc1ccc(C[C@H](N)C(=O)O)cc1; d(hPhe) = N[C@H](CCc1ccccc1)C(=O)O; d2Thi = N[C@H](Cc1cccs1)C(=O)O; Suc = O=C(CCC(=O)[*:2])[*:1]; Boc = CC(C)(C)OC(=O)*; GABA = NCCCC(=O)O

Columns and labels:
[1] = test system: TNF-α (degradation of IkB in HeLa cells or A431 cells); assay: Human cell-based assay: inhibition of TNF-α induced degradation of IkB; settings: for inhibition at 5 µM: read-out: Inhibition at Various Compound Concentrations, 5 μM; for inhibition at 10 µM: read-out: Inhibition at Various Compound Concentrations, 10 μM; for inhibition at 25 µM: 25 μM compound, read-out: Inhibition at Various Compound Concentrations, 25 μM
Description: We used a human cell-based assay to determine the TNF-α antagonistic activity of the compounds of this invention based upon the ability of the compounds to inhibit the degradation of IkB in those cells. The assay was performed on either HeLa cells or A431 cells.
On Day 1, wells of a 24-well tissue culture plate were seeded with cells that had been harvested from cultures in T-75 flasks by standard trypsin/EDTA treatment. The harvested cells were suspended in EMEM/10% FBS/P/S (100,000 HeLa cells/mL or 200,000 A431 cells/mL) and 1 mL aliquots were placed into each well. The cells were incubated overnight at 37° C. in a humidified CO2 incubator. On day 2, the cells were approximately 95% confluent.
Test and control compounds were diluted to a 1 mM solution by dilution in DMSO. The assay was run in Costar tubes. Into each tube was placed 2.5 or 5.0 μL of test compound (for testing 5 μM and 10 μM concentrations, respectively), 2.5 μL of 100× TNF-α solution (200 ng/mL TNF-α in EMEM containing 1μg/mL cycloheximide) and, for those tubes containing 2.5 μL of compound, an additional 2.5 μL of DMSO. To each tube was then added 0.5 mL of EMEM containing 1μg/mL cycloheximide. Negative control tubes contained either a) no compound, or b) no TNF-α. Tubes were then incubated for 30 minutes at room temperature.
Once incubation had begun, the media was aspirated from the cells in the 24-well plates. Sufficient EMEM/10% FBS/P/S containing 1 ug/mL cycloheximide was then added to cover the cells (approximately 3 mL) and the cells were retuned to the 37° C. humidified CO2 incubator until compound incubation was completed. The media was then aspirated from the cells, 0.2 mL of the compound solution was added and the cells re-incubated at 37° C. for 30 minutes. The plates were then placed on ice, the compound solution was aspirated from each well, and the cells washed once with 1 mL of cold PBS. Cells were then fixed with 500 μL of 3.7% formaldehyde in PBS (“fix solution”) for 20 minutes at room temperature. The fix solution was decanted and the cells permeabilized by 4× washing with 500 uL PBS/0.1% Triton X-100. After the final permeabilization wash, the cells were treated with 500 uL of Odyssey blocking buffer (OBB) and incubated at room temperature with shaking for 90 minutes.
The OBB was decanted and then to each well was then added 125 μL each of mouse anti-IkB CST#4814 (diluted 1:200 in OBB) and rabbit anti-beta-tubulin CST#2146 (diluted 1:200 in OBB). Plates were sealed with parafin and incubated overnight at room temperature with shaking.
On day 3, the antibody solution was removed from the cells and the cells were washed 5× with 0.5 mL PBST for five minutes each on a shaker. To each well was then aded 125 μL of a secondary antibody solution containing goat anti-mouse IgG-IRDye 800 and goat anti-rabbit IgG-IRDye (each diluted 1:500 in OBB+0.2% Tween 20). The plates were covered with aluminum foil and incubated for 1 hour at room temperature with shaking. The secondary antibody solution was removed and the cells washed 3× with 0.5 mL PBST for five minutes each on a shaker. Cells were then scanned by LICOR with the following settings: 700 intensity=6.0, 800 intensity=6.5; microplate2 settings with 3.0 mm offset; 169 resolution. LICOR values were fitted to an equation for a sigmoidal curve and IC50 values calculated from the fitted parameters. […] Blank cells indicate that the compound was not tested at that concentration. Certain compounds that were tested more than once and the values reflect the average of the multiple tests.

[2] = biological target: T1, TNFα / TNFα receptor (TNFα R1/Fc) (Homo sapiens, UniProt P01375); assay: Inhibition of binding of TNFα to the TNFα receptor (plate ELISA competition); settings: Table 2
T1 construct: purchased R&D Systems
T1 sequence (P01375 77-233 limits assumed, species assumed): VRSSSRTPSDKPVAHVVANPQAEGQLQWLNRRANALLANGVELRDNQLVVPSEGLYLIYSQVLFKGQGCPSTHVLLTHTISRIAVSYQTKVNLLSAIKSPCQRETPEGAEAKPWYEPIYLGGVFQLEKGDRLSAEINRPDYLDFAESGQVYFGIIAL
Outline: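 Compound dilutions were preincubated 30 min at RT with 8.33 nM TNFα R1/Fc in PBST with 2% DMSO, then added to wells coated with 15 nM TNFα for 30 min. Bound receptor was detected with HRP anti-human Fc and TMB, read as A450.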

[3] = 5 μM compound, HeLa or A431 cells
[4] = 10 μM compound, HeLa or A431 cells
[5] = read-out: Activity (IC50, inhibition of TNFα binding to TNFα R1/Fc)
[6] = Activity (IC50, inhibition of TNFα binding to TNFα R1/Fc)

IC50 [2, 5] [µM] | Structure (SMILES) | inhibition at 5 µM [1, 3] [%] | inhibition at 10 µM [1, 4] [%] | inhibition at 5 µM [1] [%] | inhibition at 10 µM [1] [%] | IC50 [2, 6] [µM] | inhibition at 25 µM ([1]; HeLa or A431 cells) [%]
< 10 | O=C(O)[C@@H]1Cc2ccc(cc2)NC(=O)[C@H](O)[C@@H](O)C(=O)N[C@H](Cc2cccs2)C(=O)N[C@@H](Cc2ccc(-c3ccc(Cl)cc3)cc2)C(=O)N[C@H](Cc2ccccc2)C(=O)N1 [Compound 180] | < 10 | < 10 | – | – | – | –
< 10 | C[C@H](NC(=O)[C@@H]1Cc2ccc(cc2)OCC(=O)N[C@@H](Cc2cccs2)C(=O)N[C@H](Cc2ccc(-c3ccccc3)cc2)C(=O)N[C@@H](Cc2ccccc2)C(=O)N1)C(=O)O [Compound 385] | 50 to 80 | > 80 | – | – | – | –
– | O=C1COc2ccc(cc2)C[C@@H](C(=O)N[C@H](Cc2ccccc2)C(=O)O)NC(=O)[C@@H](CCc2ccccc2)NC(=O)[C@H](Cc2ccc(-c3ccccc3)cc2)NC(=O)[C@@H](Cc2cccs2)N1 [Compound 324] | – | – | 10 to 50 | 10 to 50 | < 10 | –
< 10 | CC(C)(NC(=O)[C@@H]1Cc2ccc(cc2)OCC(=O)N[C@H](Cc2cccs2)C(=O)N[C@@H](Cc2ccc(-c3ccccc3)cc2)C(=O)N[C@H](CCc2ccccc2)C(=O)N1)C(=O)O [Compound 297] | < 10 | < 10 | – | – | – | –
< 10 | O=C(O)CCNC(=O)[C@@H]1Cc2ccc(cc2)OCC(=O)N[C@H](Cc2cccs2)C(=O)N[C@@H](Cc2ccc(-c3ccccc3)cc2)C(=O)N[C@H](CCc2ccccc2)C(=O)N1 [Compound 301] | < 10 | < 10 | – | – | – | –
10 to 30 | O=C1CCC(=O)N[C@H](CCc2ccccc2)C(=O)N[C@@H](Cc2ccc(Br)cc2)C(=O)N[C@H](Cc2ccccc2)C(=O)N[C@@H](C(=O)O)Cc2ccc(cc2)N1 [Compound 111] ([d(hPhe)][Phe(4-Br)][dF][dPhe(4-NH2)]-OH; linker N-4 via Suc) | – | < 10 | – | – | – | –
< 10 | O=C(O)CCNC(=O)[C@@H]1Cc2ccc(cc2)OCC(=O)N[C@@H](Cc2cccs2)C(=O)N[C@H](Cc2ccc(-c3ccccc3)cc2)C(=O)N[C@@H](Cc2ccccc2)C(=O)N1 [Compound 319] | < 10 | < 10 | – | – | – | –
< 10 | O=C(N[C@H](Cc1ccccc1)C(=O)O)[C@@H]1Cc2ccc(cc2)NC(=O)[C@H](O)[C@@H](O)C(=O)N[C@H](Cc2cccs2)C(=O)N[C@@H](Cc2ccc(-c3ccccc3)cc2)C(=O)N[C@H](Cc2ccccc2)C(=O)N1 [Compound 16] | – | < 10 | – | – | – | –
10 to 30 | O=C1CCC(=O)N[C@H](Cc2cccs2)C(=O)N[C@@H](Cc2ccc(C(F)(F)F)cc2)C(=O)N[C@H](Cc2ccccc2)C(=O)N[C@H](C(=O)O)Cc2ccc(cc2)N1 [Compound 89] ([d2Thi][Phe(4-CF3)][dF][Phe(4-NH2)]-OH; linker N-4 via Suc) | – | – | – | – | – | < 10
< 10 | CC(=O)O[C@H]1C(=O)Nc2ccc(cc2)C[C@H](C(=O)O)NC(=O)[C@@H](CCc2ccccc2)NC(=O)[C@H](Cc2ccc(-c3ccccc3)cc2)NC(=O)[C@@H](Cc2cccs2)NC(=O)[C@@H]1OC(C)=O [Compound 217] ([d2Thi][Bip][d(hPhe)][dPhe(4-NH2)]-OH; linker N-4 via Tartaroyl(2R,3R-(OAc)2)) | < 10 | < 10 | – | – | – | –
< 10 | O=C1COc2ccc(cc2)C[C@@H](C(=O)N[C@@H](Cc2ccc(O)cc2)C(=O)O)NC(=O)[C@H](Cc2ccccc2)NC(=O)[C@H](Cc2ccc(-c3ccccc3)cc2)NC(=O)[C@H](Cc2cccs2)N1 [Compound 343] | < 10 | 10 to 50 | – | – | – | –
< 10 | NCCCC(=O)N[C@H]1CC(=O)Nc2ccc(cc2)C[C@@H](C(=O)O)NC(=O)[C@@H](Cc2ccccc2)NC(=O)[C@H](Cc2ccc(-c3ccccc3)cc2)NC(=O)[C@@H](Cc2cccs2)NC1=O [Compound 379] (H-[GABA]D[d2Thi][Bip][dF][Phe(4-NH2)]-OH; lactam 2-6) | 50 to 80 | 10 to 50 | – | – | – | –
< 10 | COC(=O)[C@H](CC(=O)O)NC(=O)[C@@H]1Cc2ccc(cc2)OCC(=O)N[C@@H](Cc2cccs2)C(=O)N[C@@H](Cc2ccc(-c3ccccc3)cc2)C(=O)N[C@@H](Cc2ccccc2)C(=O)N1 [Compound 327] | 10 to 50 | < 10 | – | – | – | –
< 10 | O=C(O)CCCNC(=O)[C@@H]1Cc2ccc(cc2)NC(=O)CCC(=O)N[C@H](Cc2cccs2)C(=O)N[C@@H](Cc2ccc(-c3ccccc3)cc2)C(=O)N[C@H](Cc2ccccc2)C(=O)N1 [Compound 34] ([d2Thi][Bip][dF][Phe(4-NH2)][GABA]-OH; linker N-4 via Suc) | – | – | – | – | – | < 10
< 10 | O=C(O)[C@H](Cc1ccccc1)NC(=O)[C@@H]1Cc2ccc(cc2)NC(=O)[C@H](O)[C@@H](O)C(=O)N[C@H](Cc2ccc(F)c(F)c2)C(=O)N[C@@H](Cc2ccc(-c3ccccc3)cc2)C(=O)N[C@H](Cc2ccccc2)C(=O)N1 [Compound 282] | 50 to 80 | 10 to 50 | – | – | – | –
10 to 30 | O=C1CCC(=O)N[C@H](Cc2cccs2)C(=O)N[C@@H](Cc2ccc(-c3ccccc3)cc2)C(=O)N[C@H](Cc2ccccc2)C(=O)N[C@H](C(=O)O)Cc2ccc(cc2)N1 [Compound 1] ([d2Thi][Bip][dF][Phe(4-NH2)]-OH; linker N-4 via Suc) | – | – | – | – | – | 10 to 50
< 10 | C[C@H](NC(=O)[C@@H]1Cc2ccc(cc2)NC(=O)CCC(=O)N[C@H](Cc2cccs2)C(=O)N[C@@H](Cc2ccc(-c3ccccc3)cc2)C(=O)N[C@H](Cc2ccccc2)C(=O)N1)C(=O)O [Compound 20] ([d2Thi][Bip][dF][Phe(4-NH2)]A-OH; linker N-4 via Suc) | – | – | – | – | – | < 10
< 10 | O=C1N[C@H](CCc2ccccc2)C(=O)N[C@@H](C(=O)O)Cc2ccc(cc2)NC(=O)[C@H](O)[C@@H](O)C(=O)N[C@H](Cc2cccs2)C(=O)N[C@H]1Cc1ccc(-c2ccccc2)cc1 [Compound 236] | 10 to 50 | 10 to 50 | – | – | – | –
10 to 30 | CC(C)(C)OC(=O)NCCCC[C@H](NC(=O)[C@@H]1Cc2ccc(cc2)NC(=O)CCC(=O)N[C@H](Cc2cccs2)C(=O)N[C@@H](Cc2ccc(-c3ccccc3)cc2)C(=O)N[C@H](Cc2ccccc2)C(=O)N1)C(=O)O [Compound 35] ([d2Thi][Bip][dF][Phe(4-NH2)]K(Boc)-OH; linker N-4 via Suc) | – | – | – | – | – | 50 to 80
– | O=C1COc2ccc(cc2)C[C@@H](C(=O)NC2(C(=O)O)CC2)NC(=O)[C@@H](CCc2ccccc2)NC(=O)[C@H](Cc2ccc(-c3ccccc3)cc2)NC(=O)[C@@H](Cc2cccs2)N1 [Compound 299] | – | – | < 10 | < 10 | < 10 | –

Structure (SMILES) | IC50 [2, 5] [µM] | inhibition at 5 µM [1, 3] [%] | inhibition at 10 µM [1, 4] [%] | inhibition at 5 µM [1] [%] | inhibition at 10 µM [1] [%] | IC50 [2, 6] [µM] | inhibition at 25 µM ([1]; HeLa or A431 cells) [%]
O=C1COc2ccc(cc2)C[C@@H](C(=O)O)NC(=O)[C@H](Cc2ccccc2)NC(=O)[C@H](Cc2ccc(-c3ccc(F)cc3)cc2)NC(=O)[C@H](Cc2cccs2)N1 [Compound 363] | < 10 | – | – | 50 to 80 | 10 to 50 | – | –
O=C1COc2ccc(cc2)C[C@@H](C(=O)O)NC(=O)[C@H](Cc2ccccc2)NC(=O)[C@H](Cc2ccc(-c3ccncc3)cc2)NC(=O)[C@H](Cc2cccs2)N1 [Compound 366] | < 10 | – | – | < 10 | < 10 | – | –
